Target: T1, Human CaV2.2 channels (Homo sapiens, UniProt Q00975)
T1 construct: expressed in transfected cells
Test: Fluorescent assay for CaV2.2 channels using potassium depolarization to induce channel opening (FLIPR, Fluo-4)
Format: cell-based
Conditions: 3 μM test compound, 30 mM KCl, HEK293 cells stably expressing human CaV2.2; read-out: %-Inhib (CaV2.2) @3 μM @30 mM KCl
Source text: In the process, the Ca^2+ influx is quantified in the FLIPR assay with the aid of a Ca^2+-sensitive dye (type Fluo-4, Molecular Probes Europe BV, Leiden, the Netherlands) in a fluorescent imaging plate reader (FLIPR 3, Molecular Devices, Sunnyvale, USA), as described hereinafter.
2.1 Fluorescent Assay for CaV2.2 Channels Using Potassium Depolarization to Induce Channel Opening
Human CaV2.2 channels were stably expressed in HEK293 cells together with alpha2-delta and beta subunits of voltage gated calcium channels. In addition, an inwardly rectifying potassium channel (Kir2.3) was stably expressed in these cells to augment control of the cell membrane potential by the concentration of extracellular potassium ions. Raise of the extracellular potassium concentration leads to depolarization of the membrane potential and thus regulates the voltage dependent state of CaV2.2 channels. For preparation, cells were seeded in black poly-D-lysine coated 96-well plates (Becton Dickinson, Biocoat 4640) in 100 μl medium [500 ml DMEM/F-12 plus Glutamax (Invitrogen 31331-093) plus 5.5 ml MEM NEAA 100× (Invitrogen 11140-035) plus 50 ml FBS decomplemented (Invitrogen 10270-106) plus 4.4 ml Geneticin (Invitrogen 10131-027) plus 1.1 ml Hygromycin B (Invitrogen 10687-010) plus 68.75 μl Puromycin (Clontech, 631306)] at a cell density of 45.000 cells per well.
Plates were incubated at 37° C. (5% CO2) for 20 to 23 hours. On the day of experiment medium was discarded and cells were loaded with Fluo 4 by addition of 100 μl of basic assay buffer (10 mM HEPES, 30 mM KCl, 120 mM NaCl, 0.8 mM CaCl2, 1.7 mM MgCl2, 10 mM Glucose, 0.1% BSA. pH 7.4) containing 2 μM Fluo 4 (Molecular Probes; F-14201), 0.01% pluronic acid (Molecular Probes; P-6866) and 2.5 mM probenecid (Molecular Probes; P36400). Cells were incubated in the dark at 25° C. for 60 min. Then the dye containing buffer was discarded and 100 μl basic assay buffer was added. Subsequently cells were incubated in the dark at 25° C. for 15 min. 25 μl of basic assay buffer with or without test compound were added and cells were incubated again in the dark at 25° C. for 15 min. Fluorescence intensity was measured on a FLIPR 3 instrument (Molecular Devices Corp., Sunnyvale, Calif.) with excitation at 480 nm and emission at 535 nm. After continuously reading fluorescence for 30 sec, 50 μl of basic assay buffer containing 210 mM KCl (NaCl omitted) were added for depolarization. Peak fluorescent signal intensity was determined and the amplitude of the peak signal, normalized to base line, was used to measure channel inhibition by test compounds.

T1 sequence (Q00975 whole entry): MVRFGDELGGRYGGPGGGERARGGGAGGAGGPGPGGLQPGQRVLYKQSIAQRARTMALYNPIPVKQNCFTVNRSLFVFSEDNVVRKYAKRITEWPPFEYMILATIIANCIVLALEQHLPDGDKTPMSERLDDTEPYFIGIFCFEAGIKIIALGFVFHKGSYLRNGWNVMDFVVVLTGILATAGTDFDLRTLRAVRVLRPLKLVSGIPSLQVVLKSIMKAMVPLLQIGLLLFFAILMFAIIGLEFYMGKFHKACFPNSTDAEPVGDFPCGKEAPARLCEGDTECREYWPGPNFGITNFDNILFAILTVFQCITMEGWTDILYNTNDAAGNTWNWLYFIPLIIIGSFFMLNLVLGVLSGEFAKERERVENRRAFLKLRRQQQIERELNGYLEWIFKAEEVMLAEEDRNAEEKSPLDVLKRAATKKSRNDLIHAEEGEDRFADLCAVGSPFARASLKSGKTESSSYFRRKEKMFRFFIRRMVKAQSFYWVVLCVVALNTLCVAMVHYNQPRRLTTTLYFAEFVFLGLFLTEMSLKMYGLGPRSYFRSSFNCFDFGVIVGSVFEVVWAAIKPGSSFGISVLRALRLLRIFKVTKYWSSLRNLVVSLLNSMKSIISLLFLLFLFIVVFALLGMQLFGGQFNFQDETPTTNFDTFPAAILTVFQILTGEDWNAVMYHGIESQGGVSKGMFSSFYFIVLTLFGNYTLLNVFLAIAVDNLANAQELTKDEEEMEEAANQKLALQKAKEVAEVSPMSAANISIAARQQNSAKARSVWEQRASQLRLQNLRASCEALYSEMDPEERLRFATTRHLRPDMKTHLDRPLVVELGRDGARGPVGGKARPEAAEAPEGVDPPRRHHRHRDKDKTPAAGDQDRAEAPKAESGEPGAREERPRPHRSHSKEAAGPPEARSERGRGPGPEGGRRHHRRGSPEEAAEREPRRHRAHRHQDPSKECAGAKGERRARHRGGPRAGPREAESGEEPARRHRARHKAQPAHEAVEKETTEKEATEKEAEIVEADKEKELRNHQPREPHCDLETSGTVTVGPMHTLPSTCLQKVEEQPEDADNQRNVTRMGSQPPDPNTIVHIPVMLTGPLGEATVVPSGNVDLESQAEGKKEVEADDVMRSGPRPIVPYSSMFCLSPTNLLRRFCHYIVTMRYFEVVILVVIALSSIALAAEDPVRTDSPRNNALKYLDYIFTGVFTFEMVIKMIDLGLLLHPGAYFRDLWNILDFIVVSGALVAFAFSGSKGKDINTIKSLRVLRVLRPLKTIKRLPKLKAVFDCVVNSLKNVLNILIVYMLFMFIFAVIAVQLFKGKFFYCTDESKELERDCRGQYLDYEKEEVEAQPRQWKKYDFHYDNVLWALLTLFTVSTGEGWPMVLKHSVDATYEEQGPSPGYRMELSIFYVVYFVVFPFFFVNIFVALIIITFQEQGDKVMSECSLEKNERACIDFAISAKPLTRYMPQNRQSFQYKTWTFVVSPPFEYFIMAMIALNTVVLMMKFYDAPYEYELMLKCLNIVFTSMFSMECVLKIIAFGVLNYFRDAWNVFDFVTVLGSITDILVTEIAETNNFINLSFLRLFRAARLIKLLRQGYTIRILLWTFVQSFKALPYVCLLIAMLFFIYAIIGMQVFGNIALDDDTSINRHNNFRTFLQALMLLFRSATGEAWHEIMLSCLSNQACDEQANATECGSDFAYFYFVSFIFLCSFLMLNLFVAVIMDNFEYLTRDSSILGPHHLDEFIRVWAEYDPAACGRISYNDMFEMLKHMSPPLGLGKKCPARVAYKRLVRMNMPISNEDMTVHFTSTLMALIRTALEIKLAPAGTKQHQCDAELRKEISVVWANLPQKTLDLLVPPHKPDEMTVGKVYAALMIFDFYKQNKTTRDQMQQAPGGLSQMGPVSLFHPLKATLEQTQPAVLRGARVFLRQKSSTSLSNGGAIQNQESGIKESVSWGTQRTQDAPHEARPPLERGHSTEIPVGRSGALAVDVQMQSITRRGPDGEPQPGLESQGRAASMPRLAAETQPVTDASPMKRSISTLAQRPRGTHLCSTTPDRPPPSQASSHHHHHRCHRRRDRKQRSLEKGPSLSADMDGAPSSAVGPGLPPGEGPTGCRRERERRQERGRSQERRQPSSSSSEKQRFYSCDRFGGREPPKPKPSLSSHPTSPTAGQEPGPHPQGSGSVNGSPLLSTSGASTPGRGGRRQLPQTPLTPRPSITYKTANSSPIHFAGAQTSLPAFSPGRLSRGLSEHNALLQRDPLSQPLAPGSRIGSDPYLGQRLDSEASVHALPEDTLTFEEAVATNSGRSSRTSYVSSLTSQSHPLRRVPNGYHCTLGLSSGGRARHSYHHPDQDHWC
T1 sequence (P54289 25-1103, further chain): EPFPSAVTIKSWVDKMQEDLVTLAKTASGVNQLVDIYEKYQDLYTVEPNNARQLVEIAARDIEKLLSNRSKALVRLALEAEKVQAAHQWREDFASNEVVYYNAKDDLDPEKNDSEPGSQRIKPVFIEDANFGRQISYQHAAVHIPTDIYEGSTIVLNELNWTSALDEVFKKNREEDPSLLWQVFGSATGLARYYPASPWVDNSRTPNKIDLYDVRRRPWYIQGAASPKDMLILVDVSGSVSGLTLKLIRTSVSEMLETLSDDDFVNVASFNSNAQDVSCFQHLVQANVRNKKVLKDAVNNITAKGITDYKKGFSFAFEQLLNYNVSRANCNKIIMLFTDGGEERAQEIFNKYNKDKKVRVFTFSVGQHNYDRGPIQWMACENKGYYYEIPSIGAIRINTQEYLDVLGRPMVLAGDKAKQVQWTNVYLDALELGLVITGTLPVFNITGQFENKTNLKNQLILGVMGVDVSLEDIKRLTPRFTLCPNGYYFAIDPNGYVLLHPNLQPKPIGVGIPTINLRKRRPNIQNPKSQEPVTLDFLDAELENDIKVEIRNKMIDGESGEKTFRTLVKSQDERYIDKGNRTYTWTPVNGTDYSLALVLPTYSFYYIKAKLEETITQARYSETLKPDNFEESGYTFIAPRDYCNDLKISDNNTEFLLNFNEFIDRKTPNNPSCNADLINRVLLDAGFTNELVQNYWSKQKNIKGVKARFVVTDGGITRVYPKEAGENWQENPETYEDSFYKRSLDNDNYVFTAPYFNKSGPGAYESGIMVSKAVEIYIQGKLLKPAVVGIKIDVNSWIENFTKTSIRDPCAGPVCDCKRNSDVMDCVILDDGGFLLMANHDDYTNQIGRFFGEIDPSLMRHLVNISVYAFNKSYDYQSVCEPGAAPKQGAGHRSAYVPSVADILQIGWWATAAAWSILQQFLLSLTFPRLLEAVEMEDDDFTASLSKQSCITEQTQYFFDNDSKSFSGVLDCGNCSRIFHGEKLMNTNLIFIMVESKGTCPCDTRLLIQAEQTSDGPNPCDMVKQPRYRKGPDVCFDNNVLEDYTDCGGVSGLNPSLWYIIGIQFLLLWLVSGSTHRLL
T1 sequence (P54284 whole entry, further chain): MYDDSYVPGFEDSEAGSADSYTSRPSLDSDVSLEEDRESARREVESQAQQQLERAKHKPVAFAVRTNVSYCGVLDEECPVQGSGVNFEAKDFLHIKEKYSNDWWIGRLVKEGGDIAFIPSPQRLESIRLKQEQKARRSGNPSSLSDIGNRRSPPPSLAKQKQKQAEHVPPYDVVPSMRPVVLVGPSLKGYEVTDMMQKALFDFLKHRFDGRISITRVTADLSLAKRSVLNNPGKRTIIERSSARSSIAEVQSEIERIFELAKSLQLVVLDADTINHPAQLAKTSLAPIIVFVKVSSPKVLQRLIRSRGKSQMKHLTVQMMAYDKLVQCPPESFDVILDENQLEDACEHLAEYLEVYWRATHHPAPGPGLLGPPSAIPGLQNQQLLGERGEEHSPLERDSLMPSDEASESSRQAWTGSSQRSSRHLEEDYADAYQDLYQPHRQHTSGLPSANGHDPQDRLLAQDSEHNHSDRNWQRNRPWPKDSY

Row | SMILES | inhibition at 3 µM
1 | Cc1c(-c2ccc(Cl)cc2)c(C(=O)N2CCOC(=O)C2)n(Cc2ccccc2)c1C(F)(F)F [SC-50, 4-[1-Benzyl-3-(4-chlorophenyl)-4-methyl-5-(trifluoromethyl)-1H-pyrrole-2-carbonyl]-morpholin-2-one] | 75 to 95%
2 | Cc1c(-c2ccc(Cl)cc2)c(C(=O)N2CCOCC2)n(CCOc2ccc(F)cc2)c1C(F)(F)F [SC-51, [3-(4-Chlorophenyl)-1-[2-(4-fluoro-phenoxy)-ethyl]-4-methyl-5-(trifluoromethyl)-1H-pyrrol-2-yl]-morpholin-4-yl-methanone] | > 95%
3 | CCOC(=O)C1(N(C)C(=O)c2c(-c3ccc(Cl)cc3)c(C)c(C(F)(F)F)n2Cc2ccccc2)CC1 [SC-52, 1[[1-Benzyl-3-(4-chlorophenyl)-4-methyl-5-(trifluoromethyl)-1H-pyrrole-2-carbonyl]-methyl-amino]-cyclopropane-1-carboxylic acid ethyl ester] | > 95%
4 | Cc1c(-c2ccc(Cl)cc2)c(C(=O)N(C)CC(C)(C)C)n(Cc2cccc(Cl)c2)c1C(F)(F)F [SC-53, 3-(4-Chlorophenyl)-1-[(3-chlorophenyl)-methyl]-N-(2,2-dimethyl-propyl)-N,4-dimethyl-5-(trifluoromethyl)-1H-pyrrole-2-carboxylic acid amide] | 75 to 95%
5 | Cc1c(-c2ccc(Cl)cc2)c(C(=O)N(C)CC(C)(C)O)n(Cc2ccccc2)c1C(F)(F)F [SC-54, 1-Benzyl-3-(4-chlorophenyl)-N-(2-hydroxy-2-methyl-propyl)-N,4-dimethyl-5-(trifluoromethyl)-1H-pyrrole-2-carboxylic acid amide] | > 95%
6 | Cc1c(-c2ccc(Cl)cc2)c(C(=O)N2CCNC(=O)C2)n(Cc2cccc(Cl)c2)c1C(F)(F)F [SC-55, 4-[3-(4-Chlorophenyl)-1-[(3-chlorophenyl)-methyl]-4-methyl-5-(trifluoromethyl)-1H-pyrrole-2-carbonyl]-piperazin-2-one] | > 95%
7 | Cc1c(-c2ccc(Cl)cc2)c(C(=O)N(C)CCS(C)(=O)=O)n(Cc2cccc(Cl)c2)c1C(F)(F)F [SC-56, 3-(4-Chlorophenyl)-1-[(3-chlorophenyl)-methyl]-N,4-dimethyl-N-(2-methylsulfonyl-ethyl)-5-(trifluoromethyl)-1H-pyrrole-2-carboxylic acid amide] | > 95%
8 | Cc1c(-c2ccc(Cl)cc2)c(C(=O)N(C)CC(C)(C)O)n(Cc2cccc(Cl)c2)c1C(F)(F)F [SC-57, 3-(4-Chlorophenyl)-1-[(3-chlorophenyl)-methyl]-N-(2-hydroxy-2-methyl-propyl)-N,4-dimethyl-5-(trifluoromethyl)-1H-pyrrole-2-carboxylic acid amide] | > 95%
9 | Cc1c(-c2ccc(Cl)cc2F)c(C(=O)N(C)CC(C)(C)O)n(Cc2ccccc2)c1C(F)(F)F [SC-58, 1-Benzyl-3-(4-chloro-2-fluoro-phenyl)-N-(2-hydroxy-2-methyl-propyl)-N,4-dimethyl-5-(trifluoromethyl)-1H-pyrrole-2-carboxylic acid amide] | > 95%
10 | Cc1c(-c2ccc(Cl)cc2F)c(C(=O)N(C)CC(C)(C)C)n(Cc2ccccc2)c1C(F)(F)F [SC-59, 1-Benzyl-3-(4-chloro-2-fluoro-phenyl)-N-(2,2-dimethyl-propyl)-N,4-dimethyl-5-(trifluoromethyl)-1H-pyrrole-2-carboxylic acid amide] | > 95%
11 | Cc1c(-c2ccc(Cl)cc2)c(C(=O)N(C)CC2(C)COC2)n(Cc2ccccc2)c1C(F)(F)F [SC-60, 1-Benzyl-3-(4-chlorophenyl)-N,4-dimethyl-N-[(3-methyl-oxetan-3-yl)-methyl]-5-(trifluoromethyl)-1H-pyrrole-2-carboxylic acid amide] | > 95%
12 | Cc1c(-c2ccc(Cl)cc2F)c(C(=O)N2CCNC(=O)C2)n(Cc2ccccc2)c1C(F)(F)F [SC-61, 4-[1-Benzyl-3-(4-chloro-2-fluoro-phenyl)-4-methyl-5-(trifluoromethyl)-1H-pyrrole-2-carbonyl]-piperazin-2-one] | > 95%
